{"source": "paper PMC5223566", "about": "“The Benzopyrone Biochanin-A as a reversible, competitive, and selective monoamine oxidase B inhibitor” (BMC Complementary and Alternative Medicine, 2017)", "key": {"[1]": {"biological_target": "T1, recombinant human MAO-A (hMAO-A) (Homo sapiens, UniProt P21397)", "T1 construct": "purchased Sigma-Aldrich; host or cells: baculovirus infected insect cells", "T1 sequence (P21397 1-527)": "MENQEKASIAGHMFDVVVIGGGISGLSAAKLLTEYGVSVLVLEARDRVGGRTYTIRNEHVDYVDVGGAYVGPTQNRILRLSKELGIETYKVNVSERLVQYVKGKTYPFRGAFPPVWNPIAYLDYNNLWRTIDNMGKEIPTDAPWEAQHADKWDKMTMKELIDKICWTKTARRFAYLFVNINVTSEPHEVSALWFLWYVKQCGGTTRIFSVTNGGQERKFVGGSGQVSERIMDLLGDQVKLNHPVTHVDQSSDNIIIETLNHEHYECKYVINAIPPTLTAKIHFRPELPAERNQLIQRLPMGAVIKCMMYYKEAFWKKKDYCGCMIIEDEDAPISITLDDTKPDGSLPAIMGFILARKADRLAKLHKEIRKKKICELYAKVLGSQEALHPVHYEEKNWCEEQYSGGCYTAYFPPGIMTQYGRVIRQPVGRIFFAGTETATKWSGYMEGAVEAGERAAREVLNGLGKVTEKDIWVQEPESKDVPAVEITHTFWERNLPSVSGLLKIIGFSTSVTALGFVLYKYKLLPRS", "assay": "hMAO-A continuous spectrophotometric assay (enzymatic H2O2 production)", "type": "biochemical", "conditions": "for RSA (relative selectivity for hMAO-A): hMAO-B IC50/hMAO-A IC50", "experimental": "(§1) A slightly modified continuous spectrophotometric assay [25] for measuring enzymatic H2O2 production was validated before the experiments. In this assay, the peroxidase chromogen reagent of 1 mM of vanillic acid and 500 μM 4-aminoantipyrine, and 4 U purpurogallin/mL of horseradish peroxidase (HRP) type-II in HBSS (pH 7.4) was prepared and validated with H2O2 standard curve. […] Isozymes were diluted to 0.7 U/mL final concentration by 10 mM HEPES in HBSS (pH 7.4). Substrates final concentrations were optimized to be 0.5 and 3 mM tyramine HCl and benzylamine HCl for hMAO-A and hMAO-B reactions. […] Stock solvents (ethanol or dimethyl sulfoxide) were kept ≤ 2% the final volume of all assays.\n(§2) The six benzopyrones of 5 × final concentrations between 0 to 400 μM and PCSEE from 0 to 250 μg/mL of at least ten data points were prepared in HBSS (pH 7.4). […] Freshly prepared volumes of 50 μL of 2.5 × substrate and peroxidase chromogen mix (1:1) were added. Absorbance was immediately read at 490 nm by the Bio-Tek μQuant Monochromatic Microplate Spectrophotometer for time zero. H2O2 production progression for each enzyme was measured every 20 min for the duration of the assay. First read measurements and the blanks background were subtracted from all absorbance values."}, "[2]": {"biological_target": "T2, recombinant human MAO-B (hMAO-B) (Homo sapiens, UniProt P27338)", "T2 construct": "purchased Sigma-Aldrich; host or cells: baculovirus infected insect cells", "T2 sequence (P27338 1-520)": "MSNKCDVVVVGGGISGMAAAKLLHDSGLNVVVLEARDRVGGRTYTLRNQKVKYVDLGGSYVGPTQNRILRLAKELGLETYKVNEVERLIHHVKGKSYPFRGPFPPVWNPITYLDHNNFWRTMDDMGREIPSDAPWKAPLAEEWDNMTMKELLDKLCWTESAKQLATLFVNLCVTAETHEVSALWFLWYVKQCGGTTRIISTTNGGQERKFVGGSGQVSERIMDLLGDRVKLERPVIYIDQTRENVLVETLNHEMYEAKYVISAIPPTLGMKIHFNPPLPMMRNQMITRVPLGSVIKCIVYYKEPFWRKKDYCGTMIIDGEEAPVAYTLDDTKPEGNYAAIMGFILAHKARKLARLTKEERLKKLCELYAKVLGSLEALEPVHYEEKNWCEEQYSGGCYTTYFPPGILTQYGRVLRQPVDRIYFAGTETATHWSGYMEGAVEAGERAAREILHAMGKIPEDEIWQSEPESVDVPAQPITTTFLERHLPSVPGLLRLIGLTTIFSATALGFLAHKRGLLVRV", "assay": "hMAO-B continuous spectrophotometric assay (enzymatic H2O2 production)", "type": "biochemical", "conditions": "for IC50: 3 mM benzylamine, 40 min preincubation at RT, ± SEM", "experimental": "as §1, §2"}, "[3]": {"biological_target": "T3, hMAO-A (Homo sapiens, UniProt P21397)", "T3 construct": "purchased Sigma-Aldrich; host or cells: baculovirus infected insect cells", "T3 sequence (P21397 1-527)": "T1 sequence (P21397 1-527)", "assay": "hMAO-A MAO-Glo luminescence assay", "type": "biochemical", "conditions": "10 μg/mL; MAO-Glo kit"}, "[4]": {"assay": "H2O2 scavenging activity assay", "conditions": "15 μM H2O2; PCSEE and ascorbic acid 62.5, 125, 250 μg/mL; BIO-A 6.25, 12.5, 25 μg/mL", "procedure": "The H2O2 scavenging activity of PCSEE and BIO-A at their highest used MAO inhibitory concentrations was investigated and compared to the standard scavenger L-ascorbic acid. […] Buffer substituted the H2O2 (n = 4) to make blank wells. Immediately, peroxidase chromogen-containing vanillic acid, 4-aminoantipyrine, and HRP type-II were prepared as in the MAO spectrophotometric assay and added as 25 μL per well. The developing color at 490 nm was optimally read within 15 min at RT using Bio-Tek Synergy HTX Multi-Reader absorbance."}, "[5]": {"biological_target": "T3, hMAO-A", "assay": "hMAO-A recovery after dilution (reversibility)", "type": "biochemical"}, "[6]": {"biological_target": "T4, hMAO-B (Homo sapiens, UniProt P27338)", "T4 sequence (P27338 1-520)": "T2 sequence (P27338 1-520)", "assay": "Michaelis-Menten kinetics of hMAO-B", "conditions": "mixed enzyme inhibition model, GraphPad Prism; ± SEM"}, "[7]": {"biological_target": "T4, hMAO-B", "assay": "hMAO-B recovery after dilution (reversibility)", "type": "biochemical", "set-up": "purchased Sigma-Aldrich; host or cells: baculovirus infected insect cells"}, "[8]": {"biological_target": "T4, hMAO-B", "assay": "hMAO-B MAO-Glo luminescence assay", "type": "biochemical", "set-up": "purchased Sigma-Aldrich; host or cells: baculovirus infected insect cells", "conditions": "10 μg/mL; MAO-Glo kit", "procedure": "A slightly modified continuous spectrophotometric assay for measuring enzymatic H2O2 production was validated before the experiments. In this assay, the peroxidase chromogen reagent of 1 mM of vanillic acid and 500 μM 4-aminoantipyrine, and 4 U purpurogallin/mL of horseradish peroxidase (HRP) type-II in HBSS (pH 7.4) was prepared and validated with H2O2 standard curve. The linearity of reaction on the instrument was confirmed to reach up to 1.76 nmol per reaction volume with R^2 of 0.9999. Isozymes were diluted to 0.7 U/mL final concentration by 10 mM HEPES in HBSS (pH 7.4). Substrates final concentrations were optimized to be 0.5 and 3 mM tyramine HCl and benzylamine HCl for hMAO-A and hMAO-B reactions. The assay was run with and without different standard MAOIs with different selectivities (DEP, CLORG, pirlindole, and rasagiline) and monitored for few hours. Isozymes were found stable within the time of incubation. Stock solvents (ethanol or dimethyl sulfoxide) were kept ≤ 2% the final volume of all assays.\nA buffer of 12.5 μL was used to make equivalent blank volumes of wells without enzyme. […] Reporter luciferase detects reagent of 50 μL was incubated with each reaction for 20-30 min to inhibit the enzyme and produce luminescence. Arbitrary light units (ALU) signal changes were measured by Synergy HTX Multi-Reader from Bio-Tek and converted to percent control change."}, "[9]": {"conditions": "spectrophotometric assay, 0.5 mM tyramine, 40 min preincubation at RT, ± SEM, read-out: hMAO-A IC50"}, "[10]": {"conditions": "0.1 × IC50 after 100-fold dilution (diluted)"}, "[11]": {"conditions": "1 × IC50 after 100-fold dilution (diluted)"}, "[12]": {"conditions": "recovery after dilution, monitored with time"}}, "note": "Where “and” joins values, the source holds several entries; their conditions need not be identical. Equal values may be shown once. Read-outs that look alike come from different tables or passages of the source."}
{"smiles": "O=c1ccc2ccc3occc3c2o1", "note": "[IPS, isopsoralen]", "values": [{"measurement": "IC50", "setting": "[1]", "value": "20.6 ± 2.45", "unit": "µM"}, {"measurement": "RSA (relative selectivity for hMAO-A)", "setting": "[1]", "value": 2.5}, {"measurement": "IC50", "setting": "[2]; spectrophotometric assay", "value": "51 ± 0.24", "unit": "µM"}, {"measurement": "relative effectiveness between isozymes, luminescence assay", "setting": "[3]", "value": "more effective against hMAO-A"}]}
{"smiles": "O=c1ccc2cc3ccoc3cc2o1", "note": "[PS, psoralen]", "values": [{"measurement": "RSA (relative selectivity for hMAO-A)", "setting": "[1]", "value": 2.0}, {"measurement": "IC50", "setting": "[1]; [9]", "value": "89 ± 5.74", "unit": "µM"}, {"measurement": "IC50", "setting": "[2]; spectrophotometric assay", "value": "175 ± 50.9", "unit": "µM"}, {"measurement": "relative effectiveness between isozymes, luminescence assay", "setting": "[3]", "value": "more effective against hMAO-A"}]}
{"smiles": "COc1ccc(-c2coc3cc(O)cc(O)c3c2=O)cc1", "note": "[BIO-A, 5,7-dihydroxy-4'-methoxyisoflavone]", "values": [{"measurement": "H2O2 scavenging activity", "setting": "[4]", "value": "did not show any scavenging activities"}, {"measurement": "% hMAO-A H2O2 production control", "setting": "[5]; [10]", "value": 90, "unit": "%"}, {"measurement": "% hMAO-A H2O2 production control", "setting": "[5]; 1 × IC50, undiluted", "value": 44.5, "unit": "%"}, {"measurement": "% hMAO-A H2O2 production control", "setting": "[5]; [11]", "value": "52% and ~ 50%"}, {"measurement": "reversibility of hMAO-A inhibition", "setting": "[5]; [12]", "value": "reversible inhibitor"}, {"measurement": "hMAO-B inhibition model alpha", "setting": "[6]", "value": "> 1"}, {"measurement": "% hMAO-B H2O2 production control", "setting": "[7]; [10]", "value": 80, "unit": "%"}, {"measurement": "% hMAO-B H2O2 production control", "setting": "[7]; 1 × IC50, undiluted", "value": 36, "unit": "%"}, {"measurement": "% hMAO-B H2O2 production control", "setting": "[7]; [11]", "value": "51% and ~ 50%"}, {"measurement": "reversibility of hMAO-B inhibition", "setting": "[7]; [12]", "value": "reversible inhibitor"}]}
{"smiles": "O=C1O[C@H]([C@@H](O)CO)C(O)=C1O", "note": "[ascorbic acid, L-ascorbic acid, reference compound]", "values": [{"measurement": "H2O2 scavenging activity", "setting": "[4]", "value": "complete scavenging activity"}]}
{"smiles": "CC(C)=CCc1cc(-c2coc3cc(O)ccc3c2=O)ccc1O", "note": "[NBI, neobavaisoflavone]", "values": [{"measurement": "RSA (relative selectivity for hMAO-A)", "setting": "[1]", "value": 1.2}, {"measurement": "IC50", "setting": "[1]; [9]", "value": "66.5 ± 5.66", "unit": "µM"}, {"measurement": "IC50", "setting": "[2]; spectrophotometric assay", "value": "77.3 ± 10.6", "unit": "µM"}, {"measurement": "relative effectiveness between isozymes, luminescence assay", "setting": "[3]", "value": "more effective against hMAO-A"}]}
{"smiles": "CC(C)=CCc1c(O)cc2c(c1O)C(=O)C[C@@H](c1ccc(O)cc1)O2", "note": "[6-PN, 6-prenylnaringenin]", "values": [{"measurement": "IC50", "setting": "[1]; [9]", "value": "54.53 ± 0.31", "unit": "µM"}, {"measurement": "RSB (relative selectivity for hMAO-B)", "setting": "[2]; hMAO-A IC50/hMAO-B IC50", "value": 3.0}, {"measurement": "IC50", "setting": "[2]; spectrophotometric assay", "value": "17.9 ± 1.84", "unit": "µM"}, {"measurement": "relative effectiveness between isozymes, luminescence assay", "setting": "[8]", "value": "more effective against hMAO-B"}]}
{"smiles": "CC(C)=CCc1cc2c(cc1O)oc(=O)c1c3ccc(O)cc3oc21", "note": "[PSD, psoralidin]", "values": [{"measurement": "hMAO-A inhibition (in words)", "setting": "[1]; spectrophotometric assay, up to 400 μM", "value": "no detectable inhibition"}, {"measurement": "hMAO-B inhibition (in words)", "setting": "[2]; spectrophotometric assay, up to 400 μM, p < 0.001", "value": "partial inhibition"}]}
{"smiles": "C#CCN(C)[C@H](C)Cc1ccccc1", "note": "[DEP, selegiline, reference compound]", "values": [{"measurement": "% hMAO-A H2O2 production control", "setting": "[5]; [10]", "value": 7, "unit": "%"}]}
